In brackets after ≈: the same amount, converted by molar mass. Several values for one entry are separate records, joined by “and”; a condition that tells them apart may be missing. Equal values may be shown once.
Experiments:
S. aureus isolates [1] = assay: MIC determination (broth microdilution) against 8 S. aureus isolates; format: cell-based; details: CAMHB Ca^2+, unit assumed
Description: Suitable methods for assessing the activity of a modified lysin polypeptide as disclosed herein are well known in the art and described in the examples. […] For example, MIC values for a modified lysin polypeptide may be determined against e.g., laboratory Staphylococcus aureus strains, in e.g., Mueller-Hinton broth or Mueller-Hinton broth supplemented with serum, such as horse serum.
The pp296 MICs were determined based on (1) cation-adjusted Mueller-Hinton Broth with 25% horse serum and 0.5 mM DTT (caMHB-HSD); (2) human serum (100% serum); and (3) ICR mice (100% serum). Vancomycin and daptomycin MICs of the isolate strains were determined in accordance with the broth microdilution method as outlined by CLSI. Results of the MIC determination are shown below in Table 2. The bacterial isolates were frozen at −80° C. in skim milk.

S. aureus isolates [2] = assay: In vivo efficacy of daptomycin in combination with pp296, neutropenic murine thigh infection model; details: 24 h; for Replicate Log10 CFU/thigh data: daptomycin alone
Description: Study animals: Specific pathogen-free female ICR mice (average body weight 23 grams) were provided food and water ad libitum and maintained and used in accordance with National Research Council recommendations. Animals were allowed a 48-hour post-delivery acclimation period before every experiment. Mice were rendered transiently neutropenic by injection of cyclophosphamide via intraperitoneal (IP) route at a dose of 150 mg/kg of body weight at four days before bacterial inoculation and 100 mg/kg of body weight at one day before bacterial inoculation.
Neutropenic Thigh Infection Model: Two transfers of the bacterial isolates were performed onto trypticase soy agar plates with 5% sheep blood and placed into an incubator at 37° C. for approximately 24 hours. After an 18-24 hour incubation of the second transfer, a suspension of approximately 10^7 CFU/mL was made for inoculation. Final bacterial inoculum concentrations were confirmed by serial dilution and plating techniques. Thigh infection with the test isolate was produced by intramuscular injection of 0.1 mL of the bacterial inoculum into each thigh of the mice. Antimicrobial therapy was initiated 2 hours after bacterial inoculation, as detailed below.
Untreated control mice (n=3) were sacrificed just prior to antibiotic administration and 24 hours after bacterial inoculation. Animals sacrificed prior to antibiotic initiation served as 0-hour control animals, representing initial bacterial burden. […] Treatment mice (n=3/group) were sacrificed at the end of the 24 hour treatment period. After sacrifice, both thighs for each mouse were homogenized in normal saline. Serial dilutions were plated on Trypticase soy agar with 5% sheep blood and incubated for 18 to 20 hours at 37.0 to determine the CFU. Efficacy was calculated as the change in bacterial density obtained in treated mice after 24 hours compared with the numbers in the 0-hour control animals. Bacterial density represents the average CFU determined from 3 mice, each contributing 2 thighs.
For the 4 S. aureus isolates HPV107, CAIRD426, JMI227, and NRS123, the following sub-therapeutic daptomycin dosage regimen was adopted: 0.76 mg/kg at 0 hrs, 0.4 mg/kg at 4 hrs, 0.24 mg/kg at 10 hrs, and 0.12 mg/kg at 17 hrs.

S. aureus = assay: pp296 dose fractionation study, neutropenic murine thigh infection model; format: in vivo; details: sub-therapeutic daptomycin SC alone, 24 h
Description: Each of the pp296 TDDs was fractionated into three regimens, i.e., one-third of the entire dose was administered via IV three times (q8h); one-half of the entire does was administered via IV two times (q12h), or the entire dose was administered via IV once daily over a 24-hour period, for a total of three groups per each TDD.
Untreated control mice (n=3/group) were sacrificed just prior to antibiotic administration, as well as 24 hours later. Animals sacrificed prior to antibiotic administration served as 0-hour control animals, representing initial bacterial burden. The 24-hour control animals received sterile normal saline in the same volume and schedule as the most frequent active drug regimen. […] After the 24-hour treatment period, all animals were euthanized and thighs were cultured quantitatively as described above. The change in bacterial density was calculated for each of the dosing regimen. Comparisons were made between the different regimens of the same total daily dose on bacterial burdens at 24 hours using one-way Analysis of Variance (ANOVA) test followed by Tukey's test where the P value was 0.05.

SMILES: CCCCCCCCCC(=O)N[C@@H](Cc1c[nH]c2ccccc12)C(=O)N[C@H](CC(N)=O)C(=O)N[C@@H](CC(=O)O)C(=O)N[C@@H]1C(=O)NCC(=O)N[C@@H](CCCN)C(=O)N[C@@H](CC(=O)O)C(=O)N[C@H](C)C(=O)N[C@@H](CC(=O)O)C(=O)NCC(=O)N[C@H](CO)C(=O)N[C@@H]([C@H](C)CC(=O)O)C(=O)N[C@@H](CC(=O)c2ccccc2N)C(=O)O[C@@H]1C [Daptomycin, daptomycin]
- MIC Daptomycin (CAMHB Ca^2+) (S. aureus isolates [1]; ATCC 29213 MSSA): 1 µg/mL (≈ 0.617 µM)
- MIC Daptomycin (CAMHB Ca^2+) (S. aureus isolates [1]; CAIRD426 MRSA): 1 µg/mL (≈ 0.617 µM)
- MIC Daptomycin (CAMHB Ca^2+) (S. aureus isolates [1]; HPV107 MRSA): 0.5 µg/mL (≈ 0.309 µM)
- MIC Daptomycin (CAMHB Ca^2+) (S. aureus isolates [1]; JMI227 MRSA): 0.5 µg/mL (≈ 0.309 µM)
- MIC Daptomycin (CAMHB Ca^2+) (S. aureus isolates [1]; JMI4789 MRSA): 1 µg/mL (≈ 0.617 µM)
- MIC Daptomycin (CAMHB Ca^2+) (S. aureus isolates [1]; NRS100 (COL) MRSA): 0.5 µg/mL (≈ 0.309 µM)
- MIC Daptomycin (CAMHB Ca^2+) (S. aureus isolates [1]; NRS123 (MW2) MRSA): 1 µg/mL (≈ 0.617 µM)
- MIC Daptomycin (CAMHB Ca^2+) (S. aureus isolates [1]; NRS271 MRSA/LRSA): 0.5 µg/mL (≈ 0.309 µM)
- Replicate Log10 CFU/thigh data (S. aureus isolates [2]; isolate ATCC2921, 0.475/0.25/0.15/0.075 mg/kg at 0/4/10/17 hrs): 8.02 Log10 CFU/thigh and 8.04 Log10 CFU/thigh and 7.79 Log10 CFU/thigh and 8.03 Log10 CFU/thigh and 6.18 Log10 CFU/thigh and 7.38 Log10 CFU/thigh
- Replicate Log10 CFU/thigh data (S. aureus isolates [2]; isolate CAIRD426, 0.76/0.4/0.24/0.12 mg/kg at 0/4/10/17 hrs): 8.16 Log10 CFU/thigh and 8.20 Log10 CFU/thigh and 7.59 Log10 CFU/thigh and 8.18 Log10 CFU/thigh and 7.47 Log10 CFU/thigh and 7.35 Log10 CFU/thigh
- Replicate Log10 CFU/thigh data (S. aureus isolates [2]; isolate HPV107, 0.76/0.4/0.24/0.12 mg/kg at 0/4/10/17 hrs): 7.16 Log10 CFU/thigh and 7.34 Log10 CFU/thigh and 7.24 Log10 CFU/thigh and 7.08 Log10 CFU/thigh and 6.74 Log10 CFU/thigh and 5.77 Log10 CFU/thigh
- Replicate Log10 CFU/thigh data (S. aureus isolates [2]; isolate JMI227, 0.76/0.4/0.24/0.12 mg/kg at 0/4/10/17 hrs): 5.93 Log10 CFU/thigh and 6.08 Log10 CFU/thigh and 6.48 Log10 CFU/thigh and 6.73 Log10 CFU/thigh and 6.86 Log10 CFU/thigh and 6.89 Log10 CFU/thigh
- Replicate Log10 CFU/thigh data (S. aureus isolates [2]; isolate JMI4789, 0.475/0.25/0.15/0.075 mg/kg at 0/4/10/17 hrs): 8.00 Log10 CFU/thigh and 6.85 Log10 CFU/thigh and 8.63 Log10 CFU/thigh and 8.52 Log10 CFU/thigh and 8.14 Log10 CFU/thigh and 7.21 Log10 CFU/thigh
- Replicate Log10 CFU/thigh data (S. aureus isolates [2]; isolate NRS100, 0.475/0.25/0.15/0.075 mg/kg at 0/4/10/17 hrs): 4.83 Log10 CFU/thigh and 5.29 Log10 CFU/thigh and 6.67 Log10 CFU/thigh and 7.76 Log10 CFU/thigh and 6.20 Log10 CFU/thigh and 7.09 Log10 CFU/thigh
- Replicate Log10 CFU/thigh data (S. aureus isolates [2]; isolate NRS123, 0.76/0.4/0.24/0.12 mg/kg at 0/4/10/17 hrs): 6.73 Log10 CFU/thigh and 7.28 Log10 CFU/thigh and 6.86 Log10 CFU/thigh and 7.09 Log10 CFU/thigh and 5.81 Log10 CFU/thigh and 6.81 Log10 CFU/thigh
- Replicate Log10 CFU/thigh data (S. aureus isolates [2]; isolate NRS217, 0.475/0.25/0.15/0.075 mg/kg at 0/4/10/17 hrs): 7.94 Log10 CFU/thigh and 7.84 Log10 CFU/thigh and 7.89 Log10 CFU/thigh and 7.92 Log10 CFU/thigh and 8.01 Log10 CFU/thigh and 8.02 Log10 CFU/thigh
- average bacterial growth vs starting inoculum (S. aureus isolates [2]; sub-therapeutic daptomycin alone, 8 isolates): 1.47±0.80 log10 CFU/thigh
- bacterial burden vs 0-hour control mice (S. aureus): 0.82±0.44 log10 CFU/thigh

From US20230277632A1, “MODIFIED PlySs2 LYSINS AND ANTIBIOTIC COMBINATIONS FOR USE AGAINST GRAM-POSITIVE BACTERIA” (ContraFect Corporation, priority 2020, published 2023)
